Measurements from US8012998B2, “Pyrrolidine aryl-ether as NK-3 receptor antagonists” (Hoffmann—LA Roche Inc., priority 2007, dated 2011).

The molecules below were run against T1, human NK3 receptor (Homo sapiens, UniProt P29371) (assay: [3H]SR142801 competition binding assay (hNK3 receptor binding)). Details: [3H]SR142801 radioligand; membranes from HEK293 cells transiently expressing recombinant human NK3 receptor; Ki by Cheng-Prussoff; read-out: KiNK3 h.
T1 construct: expressed in transfected cells; host or cells: HEK293 cells (transient expression), membrane preparation
T1 sequence (P29371 1-465): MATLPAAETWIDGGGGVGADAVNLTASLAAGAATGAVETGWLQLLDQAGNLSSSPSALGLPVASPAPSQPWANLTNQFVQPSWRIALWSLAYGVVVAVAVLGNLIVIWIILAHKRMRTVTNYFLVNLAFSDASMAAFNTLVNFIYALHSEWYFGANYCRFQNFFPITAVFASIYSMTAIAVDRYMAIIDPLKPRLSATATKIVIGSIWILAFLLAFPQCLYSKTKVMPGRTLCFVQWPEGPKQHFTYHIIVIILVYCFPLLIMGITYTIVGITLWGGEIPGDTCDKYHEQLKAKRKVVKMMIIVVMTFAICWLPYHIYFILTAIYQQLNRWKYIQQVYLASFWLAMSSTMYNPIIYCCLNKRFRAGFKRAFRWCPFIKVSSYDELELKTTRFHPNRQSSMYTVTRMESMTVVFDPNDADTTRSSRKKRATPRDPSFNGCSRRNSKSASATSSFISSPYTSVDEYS
Description: [^3H]SR^142801 Competition Binding Assay
hNK3 receptor binding experiment were performed using [^3H]SR^142801 (Catalog No. TRK1035, specific activity: 74.0 Ci/mmol, Amersham, GE Healthcare UK limited, Buckinghamshire, UK) and membrane isolated from HEK293 cells transiently expressing recombinant human NK3 receptor. After thawing, the membrane homogenates were centrifuged at 48,000×g for 10 min at 4° C., the pellets were resuspended in the 50 mM Tris-HCl, 4 mM MnCl2, 1 μM phosphoramidon, 0.1% BSA binding buffer at pH 7.4 to a final assay concentration of 5 μg protein/well. […] At the end of the incubation, membranes were filtered onto unitfilter (96-well white microplate with bonded GF/C filter preincubated 1 h in 0.3% PEI +0.3% BSA, Packard BioScience, Meriden, Conn.) with a Filtermate 196 harvester (Packard BioScience) and washed 4 times with ice-cold 50 mM Tris-HCl, pH 7.4 buffer. Nonspecific binding was measured in the presence of 10 μM SB222200 for both radioligands. The radioactivity on the filter was counted (5 min) on a Packard Top-count microplate scintillation counter with quenching correction after addition of 45 μl of microscint 40 (Canberra Packard S.A., Zutrich, Switzerland) and shaking for 1 h. Inhibition curves were fitted according to the Hill equation: y=100/(1+(x/IC50)^nH), where nH=slope factor using Excel-fit 4 software (Microsoft). IC50 values were derived from the inhibition curve and the affinity constant (Ki) values were calculated using the Cheng-Prussoff equation Ki=IC50/(1+[L]/KD) where [L] is the concentration of radioligand and KD is its dissociation constant at the receptor, derived from the saturation isotherm. All experiments were performed in duplicate and the mean ± standard error (SEM) of the individual Ki values was calculated.

In order of rising Ki:
1. Cc1nc(-c2ccc(C(=O)N3C[C@H]([C@H](C)Oc4ccc(C#N)cn4)[C@@H](c4ccc(Cl)c(Cl)c4)C3)cc2)no1 (racemic) [Example 61, 6-((SR)-1-{(3RS,4SR)-4-(3,4-Dichloro-phenyl)-1-[4-(5-methyl-[1,2,4]oxadiazol-3-yl)-benzoyl]-pyrrolidin-3-yl}-ethoxy)-nicotinonitrile]  1.4 nM
2. C[C@H](Oc1ccc(C#N)cn1)[C@H]1CN(C(=O)c2ccc(-c3cnco3)cc2)C[C@@H]1c1ccc(Cl)c(Cl)c1 (racemic) [Example 59, 6-{(SR)-1-[(3RS,4SR)-4-(3,4-Dichloro-phenyl)-1-(4-oxazol-5-yl-benzoyl)-pyrrolidin-3-yl]-ethoxy}-nicotinonitrile]  2.1 nM
3. C[C@H](Oc1ccc(C#N)cn1)[C@H]1CN(C(=O)c2ccc(-n3cccn3)nc2)C[C@@H]1c1ccc(Cl)c(Cl)c1 (racemic) [Example 65, 6-{(SR)-1-[(3RS,4SR)-4-(3 ,4-Dichloro-phenyl)-1-(6-pyrazol-1-yl-pyridine-3-carbonyl)-pyrrolidin-3-yl]-ethoxy}-nicotinonitrile]  2.6 nM
4. Cc1cc(C(=O)N2C[C@H]([C@H](C)Oc3ccc(Cl)cn3)[C@@H](c3ccc(Cl)cc3)C2)cnn1 [Example 108, {(3S,4R)-3-(4-Chloro-phenyl)-4-[(S)-1-(5-chloro-pyridin-2-yloxy)-ethyl]-pyrrolidin-1-yl}-(6-methyl-pyridazin-4-yl)-methanone]  2.8 nM
5. Cc1cc(C(=O)N2C[C@H]([C@H](C)Oc3ccc(Cl)cn3)[C@@H](c3ccc(F)c(F)c3)C2)cnn1 [Example 104, [(3R,4S)-3-[(S)-1-(5-Chloro-pyridin-2-yloxy)-ethyl]-4-(3,4-difluoro-phenyl)-pyrrolidin-1-yl]-(6-methyl-pyridazin-4-yl)-methanone]  4 nM
6. C[C@H](Oc1ccc(C(F)(F)F)cn1)[C@H]1CN(C(=O)c2ccc(C#N)nc2)C[C@@H]1c1ccc(Cl)c(Cl)c1 (racemic) [Example 56, 5-{(3SR,4RS)-3-(3,4-Dichloro-phenyl)-4-[(SR)-1-(5-trifluoromethyl-pyridin-2-yloxy)-ethyl]-pyrrolidine-1-carbonyl}-pyridine-2-carbonitrile]  4.3 nM
7. [(3S,4R)-3-[(R)-1-(5-Chloro-pyridin-2-yloxy)-ethyl]-4-(3,4-dichloro-phenyl)-pyrrolidin-1-yl]-(6-methoxy-pyridin-3-yl)-methanone and [(3R,4S)-3-[(S)-1-(5-Chloro-pyridin-2-yloxy)-ethyl]-4-(3,4-dichloro-phenyl)-pyrrolidin-1-yl]-(6-methoxy-pyridin-3-yl)-methanone [Example 21]  5.6 nM
8. Cc1ncc(C(=O)N2C[C@H]([C@H](C)Oc3ccc(Cl)cn3)[C@@H](c3ccc(Cl)c(F)c3)C2)cn1 [Example 90, {(3S,4R)-3-(4-Chloro-3-fluoro-phenyl)-4-[(S)-1-(5-chloro-pyridin-2-yloxy)-ethyl]-pyrrolidin-1-yl}-(2-methyl-pyrimidin-5-yl)-methanone]  11 nM
9. COc1ccc(C(=O)N2C[C@@H]([C@@H](C)Oc3ccc(Cl)cn3)[C@H](c3ccc(Cl)c(Cl)c3)C2)cn1 (racemic) [Example 11, [(3SR,4RS)-3-[(RS)-1-(5-Chloro-pyridin-2-yloxy)-ethyl]-4-(3,4-dichloro-phenyl)-pyrrolidin-1-yl]-(6-methoxy-pyridin-3-yl)-methanone]  11.8 nM
10. Cc1ncc(C(=O)N2C[C@H]([C@H](C)Oc3ccc(C#N)cn3)[C@@H](c3ccc(Cl)c(F)c3)C2)cn1 [Example 91, 6-{(S)-1-[(3R,4S)-4-(4-Chloro-3-fluoro-phenyl)-1-(2-methyl-pyrimidine-5-carbonyl)-pyrrolidin-3-yl]-ethoxy}-nicotinonitrile]  18.4 nM
11. C[C@H](Oc1ccc(C#N)cn1)[C@H]1CN(C(=O)c2cnc(C3CC3)nc2)C[C@@H]1c1ccc(Cl)c(Cl)c1 [Example 84, 6-{(S)-1[-(3R,4S)-1-(2-Cyclopropyl-pyrimidine-5-carbonyl)-4-(3,4-dichloro-phenyl)-pyrrolidin-3-yl]-ethoxy}-nicotinonitrile]  22 nM
12. Cc1cc(C(=O)N2C[C@H]([C@H](C)Oc3ccc(Cl)cn3)[C@@H](c3ccc(F)cc3F)C2)cnn1 (racemic) [Example 117, [(3RS,4SR)-3-[(SR)-1-(5-Chloro-pyridin-2-yloxy)-ethyl]-4-(2,4-difluoro-phenyl)-pyrrolidin-1-yl]-(6-methyl-pyridazin-4-yl)-methanone]  27 nM
13. Cc1cc(C(=O)N2C[C@H]([C@H](C)Oc3ccc(C#N)cn3)[C@@H](c3ccc(Cl)c(Cl)c3)C2)c(Cl)nn1 (racemic) [Example 78, 6-{(SR)-1-[(3RS,4SR)-1-(3-Chloro-6-methyl-pyridazine-4-carbonyl)-4-(3,4-dichloro-phenyl)-pyrrolidin-3-yl]-ethoxy}-nicotinonitrile]  27.2 nM
14. C[C@@H](Oc1ccc(Cl)cn1)[C@@H]1CN(C(=O)c2ccc(F)nc2)C[C@H]1c1ccc(Cl)c(Cl)c1 (racemic) [Example 14, [(3SR,4RS)-3-[(RS)-1-(5-Chloro-pyridin-2-yloxy)-ethyl]-4-(3,4-dichloro-phenyl)-pyrrolidin-1-yl]-(6-fluoro-pyridin-3-yl)-methanone]  27.8 nM
15. Cc1cc(C(=O)N2C[C@H]([C@H](CO)Oc3ccc(Cl)cn3)[C@@H](c3ccc(F)c(F)c3)C2)cnn1 [Example 116, [(3R,4S)-3-[(R)-1-(5-Chloro-pyridin-2-yloxy)-2-hydroxy-ethyl]-4-(3,4-difluoro-phenyl)-pyrrolidin-1-yl]-(6-methyl-pyridazin-4-yl)-methanone]  28 nM
16. C[C@H](Oc1ccc(C#N)cn1)[C@H]1CN(C(=O)c2ccc(F)nc2)C[C@@H]1c1ccc(Cl)c(Cl)c1 (racemic) [Example 75, 6-{(SR)-1-[(3RS,4SR)-4-(3,4-Dichloro-phenyl)-1-(6-fluoro-pyridine-3-carbonyl)-pyrrolidin-3-yl]-ethoxy}-nicotinonitrile]  33.6 nM
17. Cc1ccnc(C(=O)N2C[C@H]([C@H](C)Oc3ccc(C#N)cn3)[C@@H](c3ccc(Cl)c(Cl)c3)C2)c1 (racemic) [Example 92, 6-{(SR)-1-[(3RS,4SR)-4-(3,4-Dichloro-phenyl)-1-(4-methyl-pyridine-2-carbonyl)-pyrrolidin-3-yl]-ethoxy}-nicotinonitrile]  33.8 nM
18. COc1ncc(C(=O)N2C[C@H]([C@H](C)Oc3ccc(C#N)cn3)[C@@H](c3ccc(Cl)c(Cl)c3)C2)cn1 (racemic) [Example 70, 6-{(SR)-1-[(3RS,4SR)-4-(3,4-Dichloro-phenyl)-1-(2-methoxy-pyrimidine-5-carbonyl)-pyrrolidin-3-yl]-ethoxy}-nicotinonitrile]  34.9 nM
19. Cc1cc(C(=O)N2C[C@@H]([C@@H](C)Oc3ccc(Cl)cn3)[C@H](c3ccc(Cl)c(Cl)c3)C2)c(C)o1 (racemic) [Example 28, [(3SR,4RS)-3-[(RS)-1-(5-Chloro-pyridin-2-yloxy)-ethyl]-4-(3,4-dichloro-phenyl)-pyrrolidin-1-yl]-(2,5-dimethyl-furan-3-yl)-methanone]  59 nM
20. Cc1cccc(C(=O)N2C[C@H]([C@H](C)Oc3ccc(C#N)cn3)[C@@H](c3ccc(Cl)c(Cl)c3)C2)n1 (racemic) [Example 93, 6-{(SR)-1-[(3RS,4SR)-4-(3,4-Dichloro-phenyl)-1-(6-methyl-pyridine-2-carbonyl)-pyrrolidin-3-yl]-ethoxy}-nicotinonitrile]  64.6 nM
21. COc1ccc(C(=O)N2C[C@@H]([C@@H](C)Oc3ccc(F)cn3)[C@H](c3ccc(Cl)c(Cl)c3)C2)cn1 (racemic) [Example 26, {(3RS,4SR)-3-(3,4-Dichloro-phenyl)-4-[(RS)-1-(5-fluoro-pyridin-2-yloxy)-ethyl]-pyrrolidin-1-yl}-(6-methoxy-pyridin-3-yl)-methanone]  66 nM
22. C[C@@H](Oc1ccc(Cl)cn1)[C@@H]1CN(C(=O)c2cnc(S(C)(=O)=O)nc2)C[C@H]1c1ccc(Cl)c(Cl)c1 (racemic) [Example 51, [(3SR,4RS)-3-[(RS)-1-(5-Chloro-pyridin-2-yloxy)-ethyl]-4-(3,4-dichloro-phenyl)-pyrrolidin-1-yl]-(2-methanesulfonyl-pyrimidin-5-yl)-methanone]  78.7 nM
